Experiments:
[1] = biological target: T1, LCRK3 (cdc2-related protein kinase 3) (Leishmania mexicana, UniProt O15851); test: luminescent kinase assay (Promega); format: biochemical; details: read-out: L CRK3
T1 construct: gene crk3; recombinant, purified from transgenic L. mexicana promastigotes (homologous expression, gift of K. Grant)
T1 sequence (O15851 1-311): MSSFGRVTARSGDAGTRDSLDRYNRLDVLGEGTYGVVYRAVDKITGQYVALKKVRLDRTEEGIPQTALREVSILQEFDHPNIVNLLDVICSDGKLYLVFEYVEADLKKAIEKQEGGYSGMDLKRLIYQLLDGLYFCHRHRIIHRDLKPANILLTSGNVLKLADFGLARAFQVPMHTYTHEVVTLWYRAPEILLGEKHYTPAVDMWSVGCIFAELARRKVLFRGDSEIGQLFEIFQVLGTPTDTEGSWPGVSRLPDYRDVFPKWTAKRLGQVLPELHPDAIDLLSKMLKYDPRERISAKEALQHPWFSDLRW

[2] = biological target: T2, LGSK-3 (leishmanial Glycogen Synthase Kinase-3 short) (Leishmania donovani, UniProt A6N857); test: luminescent kinase assay (Promega); format: biochemical; details: read-out: L GSK-3
T2 construct: recombinant, purified from L. donovani over-expressing transfectants (homologous expression); A6N857 is printed for the L. donovani homology model and alignment
T2 sequence (A6N857 1-355): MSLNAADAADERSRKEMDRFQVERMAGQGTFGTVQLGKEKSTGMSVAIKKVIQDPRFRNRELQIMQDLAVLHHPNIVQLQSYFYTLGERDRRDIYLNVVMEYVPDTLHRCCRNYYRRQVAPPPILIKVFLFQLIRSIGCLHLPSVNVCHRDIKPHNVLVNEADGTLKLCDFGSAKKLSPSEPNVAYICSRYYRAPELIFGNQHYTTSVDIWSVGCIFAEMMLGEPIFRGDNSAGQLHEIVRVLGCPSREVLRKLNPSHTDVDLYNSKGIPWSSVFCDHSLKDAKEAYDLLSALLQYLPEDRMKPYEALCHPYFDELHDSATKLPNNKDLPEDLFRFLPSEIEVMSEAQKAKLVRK

`Cc1cc2c(cc1Br)NC(=O)C2=C1Nc2ccccc2C1=NO` [5-Me-6-BIO, 5-methyl-6-bromoindirubin-3′-oxime] showed an IC50 [1] of 650 ± 90 nM and an IC50 [2] of 90 ± 20 nM.
